Results on one compound are retold here after patent US9744171B2, “Positive allosteric modulators for melanocortin receptors” (Vanderbilt University, priority 2012, dated 2017).

The assay in a line: High fat diet-induced weight gain in mice, osmotic minipump treatment. The format is in vivo. The procedure: FIG. 6 provides a bar graph showing a reduction in high fat diet-induced weight gain in mice by treatment with VU0055768. Wild type 12 week old male C57BL/6J mice were placed on a high fat diet for 5 days. Mice were then implanted subcutaneously with Alzet csmotic minipumps filled with vehicle (25% DMSO, 25% saline, 50% EtOH; n=6) or VU0055768 (25% compound in DMSO, 25% saline, 50% EtOH, n=5) so as to deliver 2.5 mg/kg/day of VU0055768. Mice were maintained on ad libitum access to water and high fat chow, and body weights were measured at the end of an additional 9 days. Bars indicate the mean and standard error of the data, and show a greater than 50% reduction in weight gain as a result of treatment with VU0055768
Eleven 12 weeks old Wt C57 mice were placed on high fat diet for 5 days. Osmotic pumps were filled with vehicle (25% DMSO, 25% saline, 50% EtOH) or VU0055768 (25% compound in DMSO, 25% saline, 50% EtOH) as to deliver 2.5 mg/kg/day, and were then inserted subcutaneously (6 vehicle, 5 compound) into the mice. The mice were fed ad-libidum with high fat diet. Mouse and food weight was measured daily. Statistical analysis of the results was t-test.

The structures appear in SMILES notation.

Take `NCCc1c(-c2ccccc2)n(-c2ccccc2)c2ccccc12` [VU0055768]: under “C57BL/6J mice on high fat diet, 2.5 mg/kg/day subcutaneous osmotic minipump, body weights after additional 9 days, vs vehicle”, the “reduction in weight gain” value is “greater than 50%”. Further, the weight gain result (Wt C57 mice on high fat diet, 2.5 mg/kg/day subcutaneous osmotic pump, t-test vs vehicle) is listed as “significantly reduced weight gain”.
